Test results: US9527889B2, “RFamide-related peptides and methods thereof” (THE REGENTS OF THE UNIVERSITY OF MICHIGAN, priority 2010, dated 2016)
pEC50: −log10 of the molar value. Where two headings read alike, the source gives them in different places. Non-standard residues stand in square brackets, D forms with d. Residues, ends and D or L forms follow the SMILES beside them. No end group written: not given here. *: point of attachment. Bpa = N[C@@H](Cc1ccc(C(=O)c2ccccc2)cc1)C(=O)O; Myristoyl = CCCCCCCCCCCCCC(=O)*

Key:
D. melanogaster heart = type: in vivo, Drosophila melanogaster; conditions: for heart rate, % of the basal contraction rate: within 1 minute; for pEC50: in vivo, maximal effect 1 minute after microinjection, read-out: best-fit EC50, decrease of heart rate; for effect on fly heart rate / contractility (in words): DMS analogs
Experimental: D. melanogaster Oregon R wild-type strain flies were maintained on cornmeal molasses media at 24° C. under a 12 hour light/dark cycle. The animals selected for analysis were larvae, prepupae, or adults; both females and males were analyzed and no difference in response was observed. An animal was positioned onto double-stick tape adhered to a microscope stage and heart rate was monitored for 2 minutes before and 10 minutes after saline (control) or peptide was delivered as previously described (Nichols, R. Et al. (1999), Zornik, E. et al. (1999)). A drawn-out micropipette was used to deliver saline or peptide (40 ηl) into the hemolymph (blood) at a site anterior to the brain to avoid tissue damage to the central nervous system and dorsal vessel (aorta and heart). Each animal received only one microinjection of saline or peptide. In some cases, recordings were extended up to 1 hour to establish the return to baseline. Data were averaged from several animals (n≧10) and reported relative to the basal heart rate.
The influence of DMS (Dromyosuppressin peptide; […]amide—SEQ ID NO: 1) on in vivo heart rate in D. melanogaster was compared to physiological saline to evaluate dose-dependent effects of myosuppressin in cardiac function in a model amenable to molecular genetics. […] The dose-dependent effects of dromyosuppressin reported were evaluated in pupae because the animals are immobile and, thus, this developmental stage is the easiest to observe and record heart contractions. The effects of DMS were measured over a range of ten-fold concentrations from 10^−6 M to 10^−11 M and compared to the influence of physiological saline (mean±SEM; 91±3% basal contraction rate at 1 minute; n=18). […] Significant reductions in heart rate were detected in response to DMS concentrations of 10^−9 M and higher, and the peak responses were observed within 1 minute of microinjection of the peptide. The DMS-induced effects typically were observed over 2-3 minutes, and were reversible, returning to approximately basal contraction rate levels in about 5 minutes in response to 10^−8 M and 10^−9 M. At the highest concentrations tested, 10^−6 M and 10^−7 M, DMS decreased heart rate to 25±11% (n=14) and 25±7% (n=16), respectively, within 1 minute. The DMS-induced effects were sustained for 3-5 minutes before they returned to approximately basal contraction rate levels within 30 minutes.

Protophormia terraenovae = test: Cardiac arrest in intact blowfly (electrocardiograms); type: in vivo
Experimental: In order to determine the effect of DMS on cardiac arrest in a larger invertebrate various concentrations of DMS were applied to intact Protophormia terraenovae, a blowfly, and electrocardiograms were recorded continuously [Angioy et al. 2007]. […] Signal resumed in animals; the recovery time shortened at lower DMS concentrations.

[1] = system: isolated adult rat cardiac myocytes; type: cell-based; conditions: for ability to bind and affect myocyte contractile function: 10^−8M, individually administered; for % Change baseline SL / % Change dep v (shortening rate) / % Change peak h (shortening amplitude) / % Change ret v (re-lengthening rate): 10^−8 M; for character relative to hRFRP-1 on myocyte contractile function (agonist, antagonist, reverse agonist; in words): peptides at 10^−8M or 10^−7M, peak shortening, departure and return velocity
Excerpt: Adult rat and rabbit ventricular cardiac myocytes were isolated as previously described (Westfall, M. V. Et al. (1997), Westfall, M. V. and Borton, A. R. (2003)). Hearts from Sprague-Dawley rats and New Zealand white rabbits were perfused and enzymatically digested to isolate myocytes; the protocol was approved by The University of Michigan University Committee on Use and Care of Animals (UCUCA) in accordance with university and federal regulatory guidelines. Aliquots of isolated ventricular myocytes were plated on laminin-coated glass coverslips in serum-containing Dulbecco's Modified Eagle Media (Invitrogen, CA, US) supplemented with 5% fetal bovine serum, and 50 U/ml penicillin and 50 μg/ml streptomycin (pen/strep; Sigma-Aldrich, MO, US). Two hours later, media was replaced with serum-free M199 (Invitrogen) supplemented with 1.8 mM Ca^2+, 10 mM HEPES, 10 mM glutathione, and pen/strep. Rat myocytes were transferred to a stimulation chamber and electrically paced the day after isolation (Zornik, E. Et al. (1999), Westfall, M. V. Et al. (1997)). Media was changed daily for all myocyte preparations.
Sarcomere shortening was detected using a video-based detection system (IonOptix, MA, USA) as described earlier (Westfall, M. V. and Borton, A. R. (2003)). Rat myocytes were paced at 0.2 Hz and rabbit myocytes were paced at 0.5 Hz or 1.0 Hz for these studies. Recordings were made prior to application of each peptide concentration, the protein kinase C (PKC) inhibitor bisindolylmaleimide-1, (bis-1; CalBiochem/EMD, NJ, US), or media only (control, C) and at 1, 3, 5, 10 and 15 minutes after application of peptide, bis-1, or media. Signal averaged data were analyzed to determine resting sarcomere length, shortening amplitude (peak shortening), shortening rate (departure velocity), and re-lengthening rate (return velocity), as previously described (Westfall, M. V. Et al. (1997), Westfall, M. V. and Borton, A. R. (2003)), in 7-20 myocytes from 3-4 rats for each peptide concentration, bis-1, and media.

CC(C)C[C@H](NC(=O)[C@H](Cc1ccccc1)NC(=O)[C@@H](NC(=O)[C@H](Cc1c[nH]cn1)NC(=O)[C@H](CC(=O)O)NC(=O)[C@@H](NC(=O)[C@H](CC(=O)O)NC(=O)[C@@H](N)[C@@H](C)O)C(C)C)C(C)C)C(=O)N[C@@H](CCCNC(=N)N)C(=O)N[C@@H](Cc1ccccc1)C(N)=O [DMS] (H-TDVDHVFLRF-NH2; N-terminus assumed)
time effects were sustained (D. melanogaster heart; 10^−6 M and 10^−7 M): 3 to 5 min | time to return to approximately basal contraction rate (D. melanogaster heart; 10^−6 M and 10^−7 M): ≤ 30 min | heart rate, % of the basal contraction rate (D. melanogaster heart; 10^−6 M, pupae): 25±11% | heart rate, % of the basal contraction rate (D. melanogaster heart; 10^−7 M, pupae): 25±7% | time to return to approximately basal contraction rate (D. melanogaster heart; 10^−8 M and 10^−9 M): about 5 minutes | heart rate, % of the basal contraction rate (D. melanogaster heart; 10^−10 M, pupae): 77±4% | time to maximal effect on heart rate (D. melanogaster heart; after microinjection, pupae): ≤ 1 min | pEC50 (D. melanogaster heart): 8.52 | responses on heart contractions in larvae and in adults (D. melanogaster heart; similar range of concentrations, larvae and adults): less robust but significant responses | time over which effects were observed (D. melanogaster heart; typical, 10^−8 M and 10^−9 M): 2 to 3 min | animals with cardiac arrest (Protophormia terraenovae; 10 μM, 1 μM, and 0.1 ηM, n=10 at each concentration): 100% | animals with cardiac arrest (Protophormia terraenovae; lower concentrations): ~50%

CC(C)C[C@H](NC(=O)[C@H](Cc1ccccc1)NC(=O)[C@@H](NC(=O)[C@H](Cc1c[nH]cn1)NC(=O)[C@H](CC(=O)O)NC(=O)[C@@H](NC(=O)[C@H](Cc1ccc(C(=O)c2ccccc2)cc1)NC(=O)[C@@H](NC(=O)[C@@H](N)Cc1ccc(O)cc1)[C@@H](C)O)C(C)C)C(C)C)C(=O)N[C@@H](CCCNC(=N)N)C(=O)N[C@@H](Cc1ccccc1)C(N)=O [Y-[Bpa2]DMS] (H-YT[Bpa]VDHVFLRF-NH2; N-terminus assumed)
pEC50 (D. melanogaster heart): 9.89

CN(C)CCCn1cc(C2=C(c3c[nH]c4ccccc34)C(=O)NC2=O)c2ccccc21 [bis-1, bisindolylmaleimide-1, reference compound]
effect of inhibitor on the influence of 10^−8 M hRFRP-1 on shortening amplitude, shortening and re-lengthening rates ([1]; 500 ηM inhibitor, 15 minutes): largely blocked

AFLRFamide (AFLRF-NH2)
effect on fly heart rate / contractility (in words) (D. melanogaster heart): capable of not only binding, but exerting an effect on cardiac contractility

FANLPLRFamide (FANLPLRF-NH2)
ability to bind and affect myocyte contractile function [1]: in a manner similar to the parent peptide hRFRP-1

FLRFamide (FLRF-NH2)
effect on fly heart rate / contractility (in words) (D. melanogaster heart): DMS antagonist

KGGFSFRFamide (KGGFSFRF-NH2; listed as Rattus norvegicus) [26RFa(19-26), reference compound]
% Change baseline SL ([1]; 15 minutes): −0.4 ± 0.2% | % Change dep v (shortening rate) ([1]; 15 minutes): −5.3 ± 5.6% | % Change peak h (shortening amplitude) ([1]; 15 minutes): −7.7 ± 4.8% | % Change ret v (re-lengthening rate) ([1]; 15 minutes): −8.1 ± 5.0%

LAEELSSYSRRKGGFSFRFamide (LAEELSSYSRRKGGFSFRF-NH2) [26RFa(8-26), reference compound]
% Change baseline SL ([1]; 15 minutes): −0.04 ± 0.1% | % Change dep v (shortening rate) ([1]; 15 minutes): −6.0 ± 4.4% | % Change peak h (shortening amplitude) ([1]; 15 minutes): −4.3 ± 5.7% | % Change ret v (re-lengthening rate) ([1]; 15 minutes): −7.3 ± 6.3%

LPLRFamide (LPLRF-NH2)
ability to bind and affect myocyte contractile function [1]: in a manner similar to the parent peptide hRFRP-1

MP(Bpa)SFANLPLRFamide (MP[Bpa]SFANLPLRF-NH2; N-terminus assumed; SMILES CSCC[C@H](N)C(=O)N1CCC[C@H]1C(=O)N[C@@H](Cc1ccc(C(=O)c2ccccc2)cc1)C(=O)N[C@@H](CO)C(=O)N[C@@H](Cc1ccccc1)C(=O)N[C@@H](C)C(=O)N[C@@H](CC(N)=O)C(=O)N[C@@H](CC(C)C)C(=O)N1CCC[C@H]1C(=O)N[C@@H](CC(C)C)C(=O)N[C@@H](CCCNC(=N)N)C(=O)N[C@@H](Cc1ccccc1)C(N)=O) [[Bpa3]hRFRP-1]
character relative to hRFRP-1 on myocyte contractile function (agonist, antagonist, reverse agonist; in words) [1]: increases cardiac function

PHSFANLPLRFamide (PHSFANLPLRF-NH2)
character relative to hRFRP-1 on myocyte contractile function (agonist, antagonist, reverse agonist; in words) [1]: super-agonist

PKI-(Myr-14-22)-amide (Myristoyl-SGRTGRRNA-NH2; SMILES CCCCCCCCCCCCCC(=O)N[C@@H](CO)C(=O)NCC(=O)N[C@@H](CCCNC(=N)N)C(=O)N[C@H](C(=O)NCC(=O)N[C@@H](CCCNC(=N)N)C(=O)N[C@@H](CCCNC(=N)N)C(=O)N[C@@H](CC(N)=O)C(=O)N[C@@H](C)C(N)=O)[C@@H](C)O; UniProt P61925 14-22, looked up, fragment) [reference compound]
effect of inhibitor on the activity of hRFRP-1 ([1]; isolated ventricular cardiac myocytes): modifies the activity of hRFRP-1

PQRFamide (PQRF-NH2)
ability to bind and affect myocyte contractile function [1]: in a manner similar to the parent peptide hRFRP-1

TDVDAVFLRFamide (TDVDAVFLRF-NH2) [[A5]DMS]
effect on fly heart rate / contractility (in words) (D. melanogaster heart): increase heart rate

TDVDHAFLRFamide (TDVDHAFLRF-NH2) [[A6]DMS]
effect on fly heart rate / contractility (in words) (D. melanogaster heart): increase heart rate

VDHVFLRFamide (VDHVFLRF-NH2)
effect on fly heart rate / contractility (in words) (D. melanogaster heart): activity similar to the parent DMS peptide

VFLRFamide (VFLRF-NH2)
effect on fly heart rate / contractility (in words) (D. melanogaster heart): capable of not only binding, but exerting an effect on cardiac contractility

VPHSAANLPLRFamide (VPHSAANLPLRF-NH2; listed as Rattus norvegicus) [rRFRP-1]
% Change baseline SL ([1]; 15 minutes): −0.3 ± 0.1% | % Change dep v (shortening rate) ([1]; 15 minutes): −22.1±6.0% | % Change peak h (shortening amplitude) ([1]; 15 minutes): −17.7±4.3% | % Change ret v (re-lengthening rate) ([1]; 15 minutes): −25.5±3.9%

YMPIISFANLPLRF-NH2 [Y-hRFRP-1]
character relative to hRFRP-1 on myocyte contractile function (agonist, antagonist, reverse agonist; in words) [1]: hRFRP-1 agonist

[A9]hRFRP-1: parent hRFRP-1 peptide where the 9th amino acid is replaced by an alanyl residue (MPHSFANLALRF-NH2; listed as Homo sapiens)
peak shortening (peak h) compared with unsubstituted hRFRP-1 ([1]; 10^−8M alanine analogs): significantly different | relaxation (ret v) compared with unsubstituted hRFRP-1 ([1]; 10^−8M alanine analogs): significantly different
